Reference: patent US11987637B1, “Prevention of disulfide bond reduction during recombinant production of polypeptides” (Genentech, Inc., priority 2007, dated 2024)

Experiments:
[1] = system: ocrelizumab disulfide bond reduction in HCCF; experiment: Lab scale HCCF hold time study: percentage of intact antibody in protein A elution pools; type: biochemical, CHO; details: for intact (150 kDa) antibody remaining in protein A elution pools: FIG. 19 legend, HCCF hold
[2] = system: hexokinase, glucose-6-phosphate dehydrogenase, thioredoxin, thioredoxin reductase; experiment: Reconstructed enzymatic reduction system, Bioanalyzer assay; details: inhibitor 0.1 mM
[3] = target: G6PD (Homo sapiens, UniProt P11413); details: cited from earlier work
Sequence of G6PD (P11413 whole entry): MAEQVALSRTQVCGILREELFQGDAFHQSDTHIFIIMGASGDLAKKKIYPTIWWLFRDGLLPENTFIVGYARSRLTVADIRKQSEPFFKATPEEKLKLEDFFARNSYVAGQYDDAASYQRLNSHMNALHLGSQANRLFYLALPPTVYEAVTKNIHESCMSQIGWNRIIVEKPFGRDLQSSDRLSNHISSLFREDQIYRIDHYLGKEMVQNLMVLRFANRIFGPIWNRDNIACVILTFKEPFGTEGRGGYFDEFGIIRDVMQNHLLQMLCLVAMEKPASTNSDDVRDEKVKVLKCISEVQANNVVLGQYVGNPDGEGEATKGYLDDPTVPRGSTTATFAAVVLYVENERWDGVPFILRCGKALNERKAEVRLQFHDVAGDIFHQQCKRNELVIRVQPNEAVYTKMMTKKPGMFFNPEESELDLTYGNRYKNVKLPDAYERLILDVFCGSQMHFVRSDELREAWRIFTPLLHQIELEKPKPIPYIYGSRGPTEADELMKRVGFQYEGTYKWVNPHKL

[4] = system: ocrelizumab reduction in HCCF (Trx system, G6PD, hexokinase); experiment: HCCF incubation experiment in mini-tanks, Bioanalyzer assay
[5] = system: antibody disulfide bond reduction in CCF/HCCF; experiment: Minimum effective inhibitor concentration to prevent antibody disulfide reduction in the CHO production process; type: biochemical; details: for minimum effective inhibitory concentration as multiple of antibody concentration: usual
[6] = target: T1, thioredoxin system (Trx, TrxR, NADPH) (Rattus norvegicus, UniProt O89049); experiment: In vitro Trx/TrxR study in histidine sulfate buffer: reduction of ocrelizumab, Bioanalyzer assay; details: for minimum inhibitory concentration as multiple of TrxR concentration: typical
T1 sequence (O89049 1-499): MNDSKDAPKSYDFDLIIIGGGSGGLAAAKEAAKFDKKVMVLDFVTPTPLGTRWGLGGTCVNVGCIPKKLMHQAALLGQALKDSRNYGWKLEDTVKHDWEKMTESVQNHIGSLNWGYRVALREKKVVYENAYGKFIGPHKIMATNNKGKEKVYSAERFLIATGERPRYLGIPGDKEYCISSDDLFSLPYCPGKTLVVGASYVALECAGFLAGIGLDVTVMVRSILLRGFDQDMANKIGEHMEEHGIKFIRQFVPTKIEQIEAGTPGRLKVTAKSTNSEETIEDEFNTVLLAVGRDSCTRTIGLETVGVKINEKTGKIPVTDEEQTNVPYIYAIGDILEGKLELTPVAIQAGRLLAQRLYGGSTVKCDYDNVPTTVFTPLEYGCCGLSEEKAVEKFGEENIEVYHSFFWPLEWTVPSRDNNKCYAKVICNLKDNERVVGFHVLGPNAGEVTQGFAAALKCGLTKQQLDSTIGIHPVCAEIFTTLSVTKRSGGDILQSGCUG
Method: (§1) A commercial TrxR (rat liver) solution (4 μM) was diluted with water to yield a 2.86 μM solution. Lyophilized Trx (human) was reconstituted with PBS (10 mM, pH 7.2) yielding a 500 μM solution. A solution of 20 mM NADPH and 10 mM ATG and ATM solutions were prepared in water.
In a black polypropylene 1.5 mL micro centrifuge tube, 437 μL reaction buffer (10 mM histidine, 10 mM Na2SO4, 137 mM NaCl, 2.5 mM KCl, pH 7.0), 25 μL NADPH, 16 μL formulated ocrelizumab solution (30.2 mg/mL) and 5 μL Trx were gently mixed. The reaction was initiated by the addition of 17.5 μL TrxR. The reaction was incubated at room temperature for 24 hours. Aliquots of 20 μL were taken at each sampling time-point and stored at −70° C. until analyzed by the Bioanalyzer assay.

[7] = target: T1, thioredoxin system (Trx, TrxR, NADPH); experiment: In vitro Trx/TrxR study in PBS: reduction of ocrelizumab, Bioanalyzer assay; details: inhibitor 1 mM, PBS (FIGS. 6, 7)
Method: as §1
In a black polypropylene 1.5 mL micro centrifuge tube, 437 μL PBS, 25 μL NADPH, 16 μL formulated ocrelizumab solution (30.2 mg/mL) and 5 μL Trx were gently mixed. The reaction was initiated by the addition of 17.5 μL TrxR. The reaction was incubated at room temperature for 24 hours. Aliquots of 20 μL were taken at each sampling time-point and stored at −70° C. until analyzed by the Bioanalyzer assay (see below).

[8] = system: ocrelizumab reduction in HCCF; experiment: Dialysis experiment: ocrelizumab in dialysis bag (MWCO 7000) incubated in HCCF; details: ocrelizumab outside the bag in the HCCF (FIG. 2)
Method: A dialysis experiment was carried out in order to determine whether the components causing reduction of ocrelizumab were small molecules or macromolecules (i.e. enzymes). A sample of 3 mL of purified and formulated ocrelizumab (30.2 mg/mL) was dialyzed against 1 L of phosphate buffered saline (PBS, 10 mM pH 7.2) for 24 hours and the PBS was changed after 8 hours. The concentration of the ocrelizumab sample was then adjusted to 1 mg/mL using the absorbance at 280 nm. Aliquots were stored at −70° C. prior to use. Dialysis tubing was hydrated overnight in a 0.05% azide solution and rinsed with sterile water prior to use. The HCCF obtained from homogenization of CCF from a 3-L fermentor was thawed and filtered through a 0.22 μm Millipak filter using a peristaltic pump. Six short mini-tanks were filled with 30 mL of HCCF each. To each mini-tank, 500 μL of ocrelizumab sample in sealed dialysis tubing was added.
A dialysis experiment was designed and carried out to determine if the reduction of ocrelizumab was caused by small reducing molecules or macromolecules (e.g., enzymes). In this dialysis experiment, purified intact ocrelizumab was placed in a dialysis bag with a molecular weight cut off (MWCO) of 7000 and incubated the dialysis bag in HCCF containing ocrelizumab in a stainless steel mini-tank.

[9] = system: ocrelizumab disulfide bond reduction in HCCF; experiment: Air sparging of HCCF: percentage of intact antibody in protein A elution pools
Method: To evaluate air sparging of the HCCF generated from homogenized CCF to prevent antibody disulfide reduction, 3-L glass or 15-L stainless steel vessels were utilized.
Approximately 1-5 L of HCCF was 0.22 μm sterile filtered into each sterilized vessel. Experimental conditions were maintained at 18-22° C. and 50 (15-L fermentor) or 275 rpm (3-L fermentor) agitation either with or without pH control by the addition of carbon dioxide. Solutions were either sparged with air to increase the dissolved oxygen level to air saturation or with nitrogen (control) to remove any dissolved oxygen in solution. Gas flow to each vessel was variable dependent upon whether a constant aeration rate was used or a minimum level of dissolved oxygen was maintained. At pre-determined time points, 25-50 mL samples were removed from both vessels and purified over a lab scale protein A affinity resin prior to analysis.
The antibody concentration in the purified protein A pool was measured using UV spectrometry at 280 nm. The purified protein A elution pools were analyzed by the Bioanalyzer assay to quantitate the percentage of intact antibody at 150 kDa molecular weight.
One HCCF mixture generated from homogenized CCF was stored and held in two separate L stainless steel fermentors. One vessel was sparged with air while the other vessel was sparged with nitrogen gas. The ocrelizumab antibody was purified immediately (t=0 hr) from the initial mixture using protein A chromatography. At selected time points, 50 mL samples were removed from each vessel and the antibody was purified using protein A chromatography. Purified protein A elution pools were then analyzed by the Bioanalyzer assay to quantitate the percentage of intact antibody at 150 kDa.

[10] = inhibitor 1 mM, HCCF from homogenized CCF of a 3-L fermentor (FIGS. 11, 12)
[11] = inhibitor 2.6 mM (FIGS. 38, 39)
[12] = added pre-lysis, antibody 2H7 (Variant A)

## O=S(=O)([O-])[O-].[Cu+2] [CuSO4, cupric sulfate]
[1]
  intact (150 kDa) antibody remaining in protein A elution pools: ~100%

## C[C@]12CC[C@H](O)CC1=CC[C@@H]1[C@@H]2CC[C@]2(C)C(=O)CC[C@@H]12 [DHEA, dehydroepiandrosterone]
[2]
  inhibition of ocrelizumab reduction: does not inhibit the reduction
[3]
  G6PD inhibition: effectively blocks G6PD activity
[4]; DHEA added to HCCF, concentration not given
  inhibition of antibody reduction in HCCF: prevents antibody reduction

## O=C(O)CN(CCN(CC(=O)O)CC(=O)O)CC(=O)O [EDTA, ethylenediaminetetraacetic acid]
[5]; antibody 2H7 (Variant A)
  minimum effective concentration: about 10 mM
[1]
  intact (150 kDa) antibody remaining in protein A elution pools: ~100%
[4]; 20 mM EDTA with 5 mM G6P, beta run HCCF that had fully lost reducing activity (FIG. 18)
  inhibition of ocrelizumab reduction in HCCF: unable to prevent the reduction
[4]; 20 mM EDTA, HCCF from 12,000 L manufacturing run (alpha run) (FIG. 17)
  inhibition of ocrelizumab reduction in HCCF: completely inhibited

## NC(=O)C1=CN([C@@H]2O[C@H](COP(=O)(O)OP(=O)(O)OC[C@H]3O[C@@H](n4cnc5c(N)ncnc54)[C@H](OP(=O)(O)O)[C@@H]3O)[C@@H](O)[C@H]2O)C=CC1 [NADPH, α-nicotinamide adenine dinucleotide phosphate]
[4]; 5 mM NADPH, beta run HCCF after several freeze/thaw cycles (FIG. 14)
  restoration of lost reduction activity in HCCF: the reduction event returned

## O=C[C@H](O)[C@@H](O)[C@H](O)[C@H](O)COP(=O)(O)O [Variant G6P, glucose-6-phosphate]
[4]; 10 mM G6P, repeatedly freeze-thawed beta run HCCF (FIG. 15)
  restoration of lost reduction activity in HCCF: reactivated the Trx system

## OC[C@H]1O[C@H]([S-])[C@H](O)[C@@H](O)[C@@H]1O.[Au+] [aurothioglucose]
[6]; inhibitor 0.2 μM (2:1 ATG:TrxR), after 24 hours (FIG. 28)
  inhibition of ocrelizumab reduction by Trx system: cannot inhibit ocrelizumab reduction
[6]; inhibitor 0.4 μM (4:1 ATG:TrxR) (FIG. 27)
  inhibition of ocrelizumab reduction by Trx system: effectively inhibits the reduction of ocrelizumab
[6]; inhibitor 0.6 μM (6:1 ATG:TrxR) (FIG. 26)
  inhibition of ocrelizumab reduction by Trx system: effectively inhibits the reduction of ocrelizumab
[6]; inhibitor 1 mM (FIG. 25)
  inhibition of ocrelizumab reduction by Trx system: effectively inhibits the reduction of ocrelizumab
[6]
  minimum inhibitory concentration as multiple of TrxR concentration: around 4 × TrxR concentration
[7]
  inhibition of ocrelizumab reduction by Trx system: effectively inhibited the ocrelizumab reduction
[4]; [10]
  inhibition of ocrelizumab reduction in HCCF: completely inhibited

## O=C(O)CC([S-])C(=O)O.[Au+] (stereo not drawn) [aurothiomalate]
[6]; inhibitor 0.01 mM (FIG. 30)
  inhibition of ocrelizumab reduction by Trx system: effectively inhibits the reduction of ocrelizumab
[6]; inhibitor 0.1 mM (FIG. 29)
  inhibition of ocrelizumab reduction by Trx system: effectively inhibits the reduction of ocrelizumab
[6]
  minimum inhibitory concentration as multiple of TrxR concentration: around 4 × TrxR concentration
[7]
  inhibition of ocrelizumab reduction by Trx system: effectively inhibited the ocrelizumab reduction
[4]; [10]
  inhibition of ocrelizumab reduction in HCCF: completely inhibited

## NCCSSCCN [cystamine]
[6]; inhibitor 26.6 μM (1:1 cystamine:2H7 disulfide), after 24 hours (FIG. 37)
  inhibition of ocrelizumab reduction by Trx system: insufficient to inhibit the reduction of ocrelizumab
[6]; inhibitor 133 μM (5:1 cystamine:2H7 disulfide), after 24 hours (FIG. 36)
  inhibition of ocrelizumab reduction by Trx system: insufficient to inhibit the reduction of ocrelizumab
[6]; inhibitor 266 μM (10:1 cystamine:2H7 disulfide) (FIG. 35)
  inhibition of ocrelizumab reduction by Trx system: effectively inhibits thioredoxin-induced reduction of ocrelizumab
[6]; inhibitor 532 μM (20:1 cystamine:2H7 disulfide) (FIG. 34)
  inhibition of ocrelizumab reduction by Trx system: effectively inhibits thioredoxin-induced reduction of ocrelizumab
[5]
  minimum effective inhibitory concentration as multiple of antibody concentration: about 40 × of the antibody concentration (in μM)

## N[C@@H](CSSC[C@H](N)C(=O)O)C(=O)O [cystine]
[6]; [11]
  inhibition of ocrelizumab reduction by Trx system: effectively inhibits reduction of ocrelizumab
[5]; added in the cell culture medium, 2H7 (Variant A)
  minimum effective concentration: about 5.2 mM
[5]; added in the cell culture medium, Apomab
  minimum effective concentration: ~6 mM
[5]; added in the cell culture medium, antibody Variant C
  minimum effective concentration: ~9 mM
[5]; added pre-lysis, Apomab
  minimum effective concentration: about 1 mM
[5]; [12]
  minimum effective concentration: about 1.3 mM
[5]; added pre-lysis, antibody Variant C
  minimum effective concentration: about 4.5 mM
[5]
  minimum effective inhibitory concentration as multiple of antibody concentration: about 40 × of the antibody concentration (in μM)

## ocrelizumab: humanized anti-CD20 antibody 2H7 Variant A: VL SEQ ID NO:1, VH SEQ ID NO:2, L chain SEQ ID NO:6, H chain SEQ ID NO:7
[8]
  reduction of ocrelizumab: significantly reduced
[9]; HCCF sparged with air, FIG. 20 legend
  intact (150 kDa) antibody remaining in protein A elution pools: ~100%
[9]; control HCCF after 5 hours of sparging with nitrogen, FIG. 20 legend
  ocrelizumab reduction: almost completely reduced
[9]; initial solution, t=0 hr
  percentage of intact antibody at 150 kDa: approximately 85%
[9]; sparged with nitrogen gas, 2 hr
  percentage of intact antibody at 150 kDa: 28%
[9]; sparged with nitrogen gas, 6 hr
  percentage of intact antibody at 150 kDa: 5%
[1]; control mixture without any addition, 20 hr
  intact antibody (150 kDa): not detected
[4]; HCCF from 12,000 L manufacturing run, ambient temperature, more than 19 hours (FIG. 16)
  ocrelizumab reduction in HCCF, no addition: reduced
[4]; HCCF from homogenized CCF of a 3-L fermentor (FIG. 10)
  ocrelizumab reduction in HCCF, no addition: readily reduced
[4]; beta run HCCF after several freeze/thaw cycles (FIG. 13)
  ocrelizumab reduction in HCCF, no addition: no ocrelizumab reduction was observed

## oxidized glutathione [GSSG]
[6]; [11]
  inhibition of ocrelizumab reduction by Trx system: effectively inhibits reduction of ocrelizumab
[5]; [12]
  minimum effective concentration: about 1.3 mM
[5]
  minimum effective inhibitory concentration as multiple of antibody concentration: about 40 × of the antibody concentration (in μM)
